{
  "source": "patent US20200179312A1",
  "about": "“ANALOGUES OF CYSTEAMINE AS THERAPEUTIC AGENTS FOR CYSTIC FIBROSIS” (I.E.R.F.C. EUROPEAN INSTITUTE FOR CYSTIC FIBROSIS RESEARCH, priority 2018, published 2020)",
  "key": {"F508delCFTR": {"target": "F508delCFTR (Homo sapiens, UniProt P13569, DEL508-508)", "sequence (P13569 with tags, fused parts or gaps DEL508-508)": "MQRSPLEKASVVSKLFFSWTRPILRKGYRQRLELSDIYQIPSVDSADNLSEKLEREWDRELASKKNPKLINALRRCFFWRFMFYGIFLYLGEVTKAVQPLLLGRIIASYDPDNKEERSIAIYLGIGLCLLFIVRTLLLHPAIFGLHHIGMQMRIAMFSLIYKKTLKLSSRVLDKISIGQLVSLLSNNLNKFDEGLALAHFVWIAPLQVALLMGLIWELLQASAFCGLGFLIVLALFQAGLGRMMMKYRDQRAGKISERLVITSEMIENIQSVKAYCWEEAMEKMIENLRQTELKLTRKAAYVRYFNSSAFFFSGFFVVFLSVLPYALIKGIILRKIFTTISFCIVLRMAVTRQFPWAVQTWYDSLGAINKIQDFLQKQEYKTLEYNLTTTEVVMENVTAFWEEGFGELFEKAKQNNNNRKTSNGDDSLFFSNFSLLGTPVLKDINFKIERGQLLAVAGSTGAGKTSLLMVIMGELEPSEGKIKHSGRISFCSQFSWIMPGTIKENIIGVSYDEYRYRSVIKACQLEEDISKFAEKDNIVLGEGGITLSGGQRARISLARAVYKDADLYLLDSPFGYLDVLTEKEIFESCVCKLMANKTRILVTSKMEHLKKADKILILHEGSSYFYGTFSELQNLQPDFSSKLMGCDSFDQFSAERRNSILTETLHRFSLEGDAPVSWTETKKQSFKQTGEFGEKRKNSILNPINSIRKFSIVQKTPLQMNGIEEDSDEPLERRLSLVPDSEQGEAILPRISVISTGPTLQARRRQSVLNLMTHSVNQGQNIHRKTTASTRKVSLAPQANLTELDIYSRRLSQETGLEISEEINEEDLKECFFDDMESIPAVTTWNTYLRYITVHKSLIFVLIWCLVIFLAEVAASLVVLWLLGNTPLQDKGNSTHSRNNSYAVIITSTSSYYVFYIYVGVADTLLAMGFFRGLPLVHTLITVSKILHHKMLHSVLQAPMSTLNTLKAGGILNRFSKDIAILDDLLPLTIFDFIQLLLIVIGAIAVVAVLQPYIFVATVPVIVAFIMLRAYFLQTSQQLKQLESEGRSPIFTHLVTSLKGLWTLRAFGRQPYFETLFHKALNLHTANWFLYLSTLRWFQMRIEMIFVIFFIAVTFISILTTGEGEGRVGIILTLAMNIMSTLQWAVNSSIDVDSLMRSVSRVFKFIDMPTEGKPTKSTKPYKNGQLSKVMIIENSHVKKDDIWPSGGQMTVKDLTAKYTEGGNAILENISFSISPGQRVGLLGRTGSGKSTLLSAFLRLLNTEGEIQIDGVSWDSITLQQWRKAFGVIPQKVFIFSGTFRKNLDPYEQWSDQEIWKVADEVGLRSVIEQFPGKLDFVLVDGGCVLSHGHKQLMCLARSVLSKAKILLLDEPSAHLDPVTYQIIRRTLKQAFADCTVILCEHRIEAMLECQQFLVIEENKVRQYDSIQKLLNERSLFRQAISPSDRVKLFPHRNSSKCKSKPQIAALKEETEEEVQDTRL", "test": "SPQ assay in CFBE41o- cells transfected with F508delCFTR", "format": "cell-based", "design": "expressed in transfected cells; host or cells: CFBE41o- cells", "procedure": "The compounds of formula I have marked effects on CFTR function. A representative number of compounds of formula I (Compounds IE1-IE4; Table I) were tested in comparison to cysteamine and amifostine through SPQ assay in F508delCFTR homozygous bronchial epithelial cell lines (CFBE41o-) transfected with F508delCFTR (FIG. 1) and in ex vivo in nasal cells collected by nasal brushing from CF patients (FIGS. 2A and B). Cell lines experiments. CFBE41l- and 16HBE14o-cells were cultured in Minimum Essential Medium (MEM) with Earle's salt, 200 mM L-Glutamine, 10% FBS and penicillin/streptomycin. CFBE41o-cells were transfected with AF508-CFTR at 37° C. and incubated for 18 h with cysteamine (250 μM) or different concentration of IE1."}, "CFTR": {"target": "CFTR (Homo sapiens, UniProt P13569, DEL508-508)", "sequence (P13569 with tags, fused parts or gaps DEL508-508)": "as above", "test": "Immunoblot detection of CFTR in CFBE cells", "format": "cell-based", "design": "expressed in transfected cells; host or cells: CFBE41o- cells", "procedure": "Cell lines experiments. CFBE41l- and 16HBE14o-cells were cultured in Minimum Essential Medium (MEM) with Earle's salt, 200 mM L-Glutamine, 10% FBS and penicillin/streptomycin. CFBE41o-cells were transfected with AF508-CFTR at 37° C. and incubated for 18 h with cysteamine (250 μM) or different concentration of IE1.\nThe proteins of cell lines lysates or lung or small intestine homogenates, obtained from treated and untreated cells or mice, were quantified by a Bio-Rad protein assay to ensure equal protein loading before immunoblot analysis. Fifty micrograms of proteins were loaded in each lane. Antibodies against SQSTM1, (Sigma Aldrich,P0067) 1:1000, BECN1 (Abcam, ab58878), 1:1000, CFTR clone CF3 (Abcam, ab2784) 1:1000 or anti-CFTR antibody 660 1:1000, Phospho-p44/42 MAPK (Erk1/2) (Thr202/Tyr204) (Cell Signaling Technology, #91101) 1:1000, TG2 (CUB7402, NEOMARKER) 1:1000 were used. Normalization was performed by probing the membrane with anti-β-actin (Cell Signaling, #4970) 1:1000 or anti-α-tubulin (Cell Signaling Technology, 2148) 1:1000."}},
  "data": [
    {"smiles": "NCCCS", "note": "[IE1, 3-aminopropane-1-thiol]", "values": [
      {"measurement": "Concentration lower than cysteamine for equal restoration of CFTR function", "setting": "F508delCFTR; 0.1 μM vs 250 μM", "result": "more than 2500 fold"},
      {"measurement": "% Function vs 16HBE", "setting": "F508delCFTR; 0.1 μM, CFBE41o- transfected with F508delCFTR", "result": 72, "unit": "%"},
      {"measurement": "CFTR function after wash out with EGCG added", "setting": "F508delCFTR; 48 h after wash out, epigallocatechin gallate added, CFBE cells", "result": "effect is preserved"},
      {"measurement": "CFTR function after wash out", "setting": "F508delCFTR; 48 h after wash out, CFBE cells", "result": "loses its efficacy"},
      {"measurement": "CFTR function after wash out", "setting": "F508delCFTR; up to 24 h after wash out, CFBE cells", "result": "able to maintain CFTR function"},
      {"measurement": "PM-resident CFTR protein", "setting": "CFTR; 0.1 μM", "result": "a sizeable fraction of the channel resided at the PM"},
      {"measurement": "PM-resident CFTR protein after washout", "setting": "CFTR; 0.1 μM, 24 h of washout", "result": "maintained"},
      {"measurement": "PM-resident CFTR protein after washout", "setting": "CFTR; 48 h of washout", "result": "decreases"},
      {"measurement": "PM-resident CFTR protein after washout with EGCG added", "setting": "CFTR; 48 h of washout, EGCG added", "result": "completely maintained"}
    ]}
  ]
}
